According to ChEMBL document CHEMBL3399954, “Design and synthesis of new tricyclic indoles as potent modulators of the S1P1 receptor” (Bioorg Med Chem Lett, 2015):

Legend:
[1] = Half life in mouse liver microsomes; format: ADME
[2] = Half life in rat liver microsomes; format: ADME
[3] = Half life in human liver microsomes; format: ADME
[4] = Clearance in Sprague-Dawley rat at 1 mg/kg, iv and 1 mg/kg, po; format: ADME, organism-based; conditions: in vivo
[5] = Volume of distribution at steady state in Sprague-Dawley rat at 1 mg/kg, iv and 1 mg/kg, po; format: ADME, organism-based; conditions: in vivo, read-out: Vdss
[6] = AUClast in Sprague-Dawley rat at 1 mg/kg, iv and 1 mg/kg, po; format: ADME, organism-based; conditions: plasma
[7] = Half life in Sprague-Dawley rat at 1 mg/kg, iv; format: ADME, organism-based; design: dose 1 mg/kg, route intravenous; conditions: in vivo
[8] = Oral bioavailability in Sprague-Dawley rat at 1 mg/kg; format: ADME, organism-based; conditions: in vivo

## O=C(O)CC1NCCc2c1[nH]c1ccc(OCc3ccc(C4CCCC4)c(C(F)(F)F)c3)cc21 (single isomer, unassigned)
[1]
  half-life: > 1 h
[2]
  half-life: > 1 h
[3]
  half-life: > 1 h
[4]
  clearance: 10.7 mL/min/kg
[5]
  Vd: 6.71 L/kg
[6]
  AUC(0-t): 1320 ng·h/mL
[7]
  half-life: 9.49 h
[8]
  bioavailability: < 2%
